Laboratory results from patent publication US8765747B2, “Fused 2-aminothiazole compounds” (Dana-Farber Cancer Institute, Inc., priority 2009, dated 2014).

Key:
[1] = tested on: Ba/F3-delWK; assay: Relative IC50 in kit-expressing cell line; assay type: cell-based, murine; settings: Mus musculus, 2.5-3 days, read-out: Relative IC50 range
Procedure: (§1) All compounds were initially dissolved in DMSO to make 10 mM stock solutions, and then were serially diluted to obtain final concentrations for in vitro experiments.
(§2) All cell lines were cultured with 5% CO2 at 37° C. in RPMI (Mediatech, Inc., Herndon, Va.) with 10% fetal calf serum (FCS) and supplemented with 1% L-glutamine. Parental Ba/F3 cells were similarly cultured with 15% WEHI-conditioned medium as a source of IL-3. Transfected cell lines were cultured in media supplemented with 1 mg/ml G418.

[2] = tested on: Ba/F3-delWK + T6701; assay: Relative IC50 in kit-expressing cell line; assay type: cell-based, murine; settings: Mus musculus, 2.5-3 days, read-out: Relative IC50 range
Procedure: as §1, §2

[3] = tested on: Ba/F3-V6559D; assay: Relative IC50 in kit-expressing cell line; assay type: cell-based, murine; settings: Mus musculus, 2.5-3 days, read-out: Relative IC50 range
Procedure: as §1, §2

[4] = tested on: Ba/F3-T6701; assay: Relative IC50 in kit-expressing cell line; assay type: cell-based, murine; settings: Mus musculus, 2.5-3 days, read-out: Relative IC50 range
Procedure: as §1, §2

[5] = tested on: Ba/F3-delWK + V654A; assay: Relative IC50 in kit-expressing cell line; assay type: cell-based, murine; settings: Mus musculus, 2.5-3 days, read-out: Relative IC50 range
Procedure: as §1, §2

[6] = tested on: Ba/F3-insAY + V654A; assay: Relative IC50 in kit-expressing cell line; assay type: cell-based, murine; settings: Mus musculus, 2.5-3 days, read-out: Relative IC50 range
Procedure: as §1, §2

[7] = tested on: Ba/F3-delWK + Y823D; assay: Relative IC50 in kit-expressing cell line; assay type: cell-based, murine; settings: Mus musculus, 2.5-3 days, read-out: Relative IC50 range
Procedure: as §1, §2

[8] = tested on: Ba/F3-insAY + T6701; assay: Relative IC50 in kit-expressing cell line; assay type: cell-based, murine; settings: Mus musculus, 2.5-3 days, read-out: Relative IC50 range
Procedure: as §1, §2

[9] = tested on: Ba/F3-insAY; assay: Relative IC50 in kit-expressing cell line; assay type: cell-based, murine; settings: Mus musculus, 2.5-3 days, read-out: Relative IC50 range
Procedure: as §1, §2

[10] = molecular target: RET (Homo sapiens (Human), UniProt P07949); assay: KINOMEscan competition binding assay
Procedure: (§3) KINOMEscan™ (Ambit Biosciences, San Diego, Calif.), a high-throughput method for screening small molecular agents against a large panel of human kinases, was utilized for compound 2.
(§4) Kinases where significant binding affinity was detected at 10 μM were retested in dose-response format to determine a dissociation constant. The size of the red circle is proportion to Kd. […] The compound binds in the “DFG-out” conformation as evident by the position of F405. Ample space is available adjacent to the gatekeeper residue T338 providing a rationale for the tolerance for a larger amino acid at this position.

[11] = molecular target: BRAF (Homo sapiens (Human), UniProt P15056); assay: KINOMEscan competition binding assay
Sequence of BRAF (P15056 whole entry): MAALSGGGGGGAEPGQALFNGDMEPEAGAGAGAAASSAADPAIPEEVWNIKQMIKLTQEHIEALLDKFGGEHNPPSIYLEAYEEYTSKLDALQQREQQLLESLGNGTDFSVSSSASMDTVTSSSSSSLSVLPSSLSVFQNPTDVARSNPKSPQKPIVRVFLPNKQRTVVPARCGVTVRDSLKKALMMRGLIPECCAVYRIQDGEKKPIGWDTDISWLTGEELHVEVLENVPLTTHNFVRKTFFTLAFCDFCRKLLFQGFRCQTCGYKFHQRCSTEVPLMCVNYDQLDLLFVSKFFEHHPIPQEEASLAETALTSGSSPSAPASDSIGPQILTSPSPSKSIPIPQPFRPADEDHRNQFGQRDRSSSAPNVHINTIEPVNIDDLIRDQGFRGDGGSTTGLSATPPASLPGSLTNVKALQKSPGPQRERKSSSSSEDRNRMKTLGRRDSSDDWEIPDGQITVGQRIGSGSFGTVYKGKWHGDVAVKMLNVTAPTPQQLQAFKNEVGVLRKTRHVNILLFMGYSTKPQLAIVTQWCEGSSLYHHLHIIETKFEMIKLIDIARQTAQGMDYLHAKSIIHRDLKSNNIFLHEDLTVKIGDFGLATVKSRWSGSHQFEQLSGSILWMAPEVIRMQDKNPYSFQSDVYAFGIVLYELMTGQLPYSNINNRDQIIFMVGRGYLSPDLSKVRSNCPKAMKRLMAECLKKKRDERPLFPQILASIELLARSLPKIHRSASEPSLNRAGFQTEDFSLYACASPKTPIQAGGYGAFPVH
Procedure: as §3, §4

[12] = molecular target: CDK3 (Homo sapiens (Human), UniProt Q00526); assay: KINOMEscan competition binding assay
Procedure: as §3, §4

[13] = molecular target: DDR1 (Homo sapiens (Human), UniProt Q08345); assay: KINOMEscan competition binding assay
Sequence of DDR1 (Q08345 19-913): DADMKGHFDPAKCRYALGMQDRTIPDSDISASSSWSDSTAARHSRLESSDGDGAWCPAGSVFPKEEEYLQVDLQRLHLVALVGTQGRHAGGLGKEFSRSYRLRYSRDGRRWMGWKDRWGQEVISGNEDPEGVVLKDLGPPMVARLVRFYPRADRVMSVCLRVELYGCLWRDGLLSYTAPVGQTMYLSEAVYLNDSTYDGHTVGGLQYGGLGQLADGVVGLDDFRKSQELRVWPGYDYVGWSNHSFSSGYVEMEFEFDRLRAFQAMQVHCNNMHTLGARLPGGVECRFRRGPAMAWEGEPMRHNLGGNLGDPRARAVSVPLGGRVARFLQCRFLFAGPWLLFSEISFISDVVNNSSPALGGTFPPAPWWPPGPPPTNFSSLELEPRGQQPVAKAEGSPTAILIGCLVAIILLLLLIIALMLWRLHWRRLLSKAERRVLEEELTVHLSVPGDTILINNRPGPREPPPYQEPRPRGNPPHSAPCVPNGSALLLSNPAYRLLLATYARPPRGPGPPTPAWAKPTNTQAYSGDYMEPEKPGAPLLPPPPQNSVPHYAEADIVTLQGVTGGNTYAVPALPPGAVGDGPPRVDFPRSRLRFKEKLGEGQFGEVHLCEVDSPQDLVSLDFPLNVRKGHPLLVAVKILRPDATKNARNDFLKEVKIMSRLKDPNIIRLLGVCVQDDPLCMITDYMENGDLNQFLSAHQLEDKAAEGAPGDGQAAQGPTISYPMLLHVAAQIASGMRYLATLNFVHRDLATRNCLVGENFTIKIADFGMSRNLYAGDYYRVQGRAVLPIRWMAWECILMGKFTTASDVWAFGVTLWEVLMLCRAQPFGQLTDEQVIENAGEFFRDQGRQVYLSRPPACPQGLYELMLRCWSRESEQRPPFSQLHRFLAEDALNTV
Procedure: as §3, §4

[14] = molecular target: FLT4 (Homo sapiens (Human), UniProt P35916); assay: KINOMEscan competition binding assay
Procedure: as §3, §4

[15] = molecular target: CDK2 (Homo sapiens (Human), UniProt P24941); assay: KINOMEscan competition binding assay
Procedure: as §3, §4

[16] = molecular target: PDGFRA (Homo sapiens (Human), UniProt P16234); assay: KINOMEscan competition binding assay
Procedure: as §3, §4

[17] = molecular target: TIE2 (Homo sapiens (Human), UniProt Q02763); assay: KINOMEscan competition binding assay
Procedure: as §3, §4

[18] = molecular target: HIPK1 (Homo sapiens (Human), UniProt Q86Z02); assay: KINOMEscan competition binding assay
Sequence of HIPK1 (Q86Z02 whole entry): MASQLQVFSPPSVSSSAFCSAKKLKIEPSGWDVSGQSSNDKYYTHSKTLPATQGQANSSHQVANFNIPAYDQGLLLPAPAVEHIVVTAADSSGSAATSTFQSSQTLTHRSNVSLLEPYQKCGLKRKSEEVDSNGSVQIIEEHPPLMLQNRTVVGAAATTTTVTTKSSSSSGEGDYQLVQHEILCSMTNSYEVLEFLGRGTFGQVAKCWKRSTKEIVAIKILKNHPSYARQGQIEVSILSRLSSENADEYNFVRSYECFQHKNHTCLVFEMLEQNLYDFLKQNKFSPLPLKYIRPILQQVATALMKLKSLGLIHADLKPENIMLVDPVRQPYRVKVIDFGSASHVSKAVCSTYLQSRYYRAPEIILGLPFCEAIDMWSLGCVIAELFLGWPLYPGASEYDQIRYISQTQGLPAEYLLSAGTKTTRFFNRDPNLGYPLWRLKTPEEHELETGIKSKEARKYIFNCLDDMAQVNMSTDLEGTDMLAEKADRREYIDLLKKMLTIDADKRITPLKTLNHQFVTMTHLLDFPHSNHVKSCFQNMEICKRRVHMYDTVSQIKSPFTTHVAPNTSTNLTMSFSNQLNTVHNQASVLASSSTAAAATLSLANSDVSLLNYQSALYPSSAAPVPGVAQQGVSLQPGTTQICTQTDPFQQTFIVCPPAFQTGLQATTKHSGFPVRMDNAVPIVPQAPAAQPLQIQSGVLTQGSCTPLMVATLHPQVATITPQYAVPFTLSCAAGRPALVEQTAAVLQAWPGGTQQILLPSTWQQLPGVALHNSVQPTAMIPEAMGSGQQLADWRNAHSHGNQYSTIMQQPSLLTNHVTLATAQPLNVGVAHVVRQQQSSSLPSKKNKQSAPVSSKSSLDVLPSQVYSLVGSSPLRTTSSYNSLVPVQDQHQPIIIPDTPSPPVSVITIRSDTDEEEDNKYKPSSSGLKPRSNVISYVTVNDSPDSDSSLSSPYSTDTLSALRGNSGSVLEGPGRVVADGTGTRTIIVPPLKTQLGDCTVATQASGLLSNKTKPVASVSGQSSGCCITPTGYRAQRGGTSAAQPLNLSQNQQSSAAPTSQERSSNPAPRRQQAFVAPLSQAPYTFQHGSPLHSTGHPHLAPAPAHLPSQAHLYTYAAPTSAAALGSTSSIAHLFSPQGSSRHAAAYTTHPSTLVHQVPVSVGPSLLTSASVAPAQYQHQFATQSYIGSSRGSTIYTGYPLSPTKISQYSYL
Procedure: as §3, §4

[19] = molecular target: PDGFRB (Homo sapiens (Human), UniProt P09619); assay: KINOMEscan competition binding assay
Sequence of PDGFRB (P09619 33-1106): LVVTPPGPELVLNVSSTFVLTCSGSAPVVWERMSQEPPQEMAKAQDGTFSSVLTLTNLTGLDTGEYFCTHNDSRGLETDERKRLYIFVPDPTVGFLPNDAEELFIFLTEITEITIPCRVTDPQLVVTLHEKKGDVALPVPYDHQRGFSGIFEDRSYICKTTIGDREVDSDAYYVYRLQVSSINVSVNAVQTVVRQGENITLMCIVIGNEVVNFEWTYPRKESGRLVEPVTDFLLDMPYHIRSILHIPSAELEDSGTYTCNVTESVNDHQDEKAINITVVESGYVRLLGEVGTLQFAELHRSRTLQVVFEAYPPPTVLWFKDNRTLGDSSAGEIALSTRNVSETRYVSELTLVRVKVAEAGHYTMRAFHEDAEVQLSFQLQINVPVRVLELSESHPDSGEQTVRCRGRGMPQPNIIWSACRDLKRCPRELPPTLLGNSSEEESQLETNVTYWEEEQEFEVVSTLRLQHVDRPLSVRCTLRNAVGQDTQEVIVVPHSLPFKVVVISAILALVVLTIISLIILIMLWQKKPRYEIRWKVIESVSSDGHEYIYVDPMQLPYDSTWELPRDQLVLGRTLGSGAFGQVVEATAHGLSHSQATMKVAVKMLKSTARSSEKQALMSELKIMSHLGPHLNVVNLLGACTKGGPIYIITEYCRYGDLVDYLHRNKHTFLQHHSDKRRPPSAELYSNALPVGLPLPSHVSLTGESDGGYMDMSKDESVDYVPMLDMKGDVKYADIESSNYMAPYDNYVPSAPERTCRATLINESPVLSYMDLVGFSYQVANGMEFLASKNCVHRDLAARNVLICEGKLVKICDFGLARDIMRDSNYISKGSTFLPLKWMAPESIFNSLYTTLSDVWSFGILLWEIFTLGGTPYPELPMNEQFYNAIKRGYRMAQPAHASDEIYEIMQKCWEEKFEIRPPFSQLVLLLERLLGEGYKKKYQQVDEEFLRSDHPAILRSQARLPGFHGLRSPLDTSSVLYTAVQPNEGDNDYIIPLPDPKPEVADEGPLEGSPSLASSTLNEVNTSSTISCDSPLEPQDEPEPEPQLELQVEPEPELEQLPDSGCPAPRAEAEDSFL
Procedure: as §3, §4

[20] = molecular target: LOK (Homo sapiens (Human), UniProt O94804); assay: KINOMEscan competition binding assay
Procedure: as §3, §4

[21] = molecular target: ABL1 (Homo sapiens (Human), UniProt P00519); assay: KINOMEscan competition binding assay
Procedure: as §3, §4

[22] = molecular target: p38-gamma (Homo sapiens (Human), UniProt P53778); assay: KINOMEscan competition binding assay
Sequence of p38-gamma (P53778 whole entry): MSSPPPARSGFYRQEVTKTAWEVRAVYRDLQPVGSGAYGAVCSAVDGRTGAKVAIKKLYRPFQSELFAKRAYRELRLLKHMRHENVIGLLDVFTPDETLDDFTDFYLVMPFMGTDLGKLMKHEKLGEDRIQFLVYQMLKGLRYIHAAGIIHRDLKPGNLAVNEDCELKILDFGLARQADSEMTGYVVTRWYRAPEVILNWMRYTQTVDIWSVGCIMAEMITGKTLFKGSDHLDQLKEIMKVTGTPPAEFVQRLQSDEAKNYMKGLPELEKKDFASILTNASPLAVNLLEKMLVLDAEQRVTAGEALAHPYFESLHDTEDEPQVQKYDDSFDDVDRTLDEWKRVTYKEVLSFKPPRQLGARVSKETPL
Procedure: as §3, §4

[23] = molecular target: CDK5 (Homo sapiens (Human), UniProt Q00535); assay: KINOMEscan competition binding assay
Sequence of CDK5 (Q00535 whole entry): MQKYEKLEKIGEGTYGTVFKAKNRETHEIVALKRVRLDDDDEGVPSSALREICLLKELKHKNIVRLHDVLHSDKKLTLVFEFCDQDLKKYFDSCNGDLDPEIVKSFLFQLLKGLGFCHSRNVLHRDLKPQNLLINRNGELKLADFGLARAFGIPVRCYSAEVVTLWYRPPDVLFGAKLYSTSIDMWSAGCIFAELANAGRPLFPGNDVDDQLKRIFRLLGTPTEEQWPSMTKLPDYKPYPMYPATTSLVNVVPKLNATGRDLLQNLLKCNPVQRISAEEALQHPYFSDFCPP
Procedure: as §3, §4

[24] = molecular target: FLT1 (Homo sapiens (Human), UniProt P17948); assay: KINOMEscan competition binding assay
Procedure: as §3, §4

[25] = molecular target: VEGFR2 (Homo sapiens (Human), UniProt P35968); assay: KINOMEscan competition binding assay
Procedure: as §3, §4

[26] = molecular target: CDK7 (Homo sapiens (Human), UniProt P50613); assay: KINOMEscan competition binding assay
Sequence of CDK7 (P50613 whole entry): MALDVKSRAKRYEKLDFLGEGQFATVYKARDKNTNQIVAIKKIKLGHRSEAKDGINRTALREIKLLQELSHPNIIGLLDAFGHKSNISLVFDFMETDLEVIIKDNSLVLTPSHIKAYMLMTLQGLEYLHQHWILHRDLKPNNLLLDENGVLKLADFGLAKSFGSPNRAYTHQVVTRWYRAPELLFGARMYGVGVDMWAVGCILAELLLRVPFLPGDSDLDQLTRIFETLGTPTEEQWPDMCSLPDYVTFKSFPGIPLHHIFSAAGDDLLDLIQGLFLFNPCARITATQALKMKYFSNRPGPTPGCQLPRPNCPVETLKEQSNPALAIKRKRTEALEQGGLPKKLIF
Procedure: as §3, §4

[27] = molecular target: ABL1(T315I) (Homo sapiens (Human), UniProt P00519, T315I); assay: KINOMEscan competition binding assay
Procedure: as §3, §4

[28] = tested on: Ba/F3-PDGFRα-T674I; assay: Cell cycle analysis; assay type: cell-based, murine; settings: 24 hours of treatment
Procedure: as §2
(§5) Cell cycle analysis was performed using approximately 500,000 cells, which were centrifuged at 1500 rpm for 5 min, washed in PBS, and the pellet re-suspended in 500 μl of propidium iodide solution (50 μg/ml propidium iodide, 0.1% NP-40, 0.1% sodium citrate). The mixture was stored in the dark at 4° C. for a minimum of 15 min, and then analyzed by flow cytometry. Apoptosis of drug-treated cells was measured using the Annexin-V-Fluos Staining Kit (Boehringer Mannheim, Indianapolis).

[29] = tested on: Ba/F3-kit-T6701; assay: Cell cycle analysis; assay type: cell-based, murine; settings: 24 hours of treatment
Procedure: as §2, §5

[30] = tested on: Ba/F3-PDGFRα-T674M; assay: Cell cycle analysis; assay type: cell-based, murine; settings: 24 hours of treatment
Procedure: as §2, §5

With `CCN1CCN(Cc2ccc(NC(=O)c3cccc(-c4ccc5nc(NC(=O)C6CC6)sc5n4)c3)cc2C(F)(F)F)CC1` [Compound 2] the IC50 [1] was 12.5 to 25 nM, the IC50 [2] was 25 to 50 nM and the IC50 [3] was 250 to 500 nM. For the same molecule, the IC50 [4] was 250 nM, the IC50 [5] was 25 to 50 nM and the IC50 [6] was over 1000 nM. For the same molecule, the IC50 [7] was 500 to 1000 nM, the IC50 [8] was at least 1000 nM and the IC50 [9] was over 1000 nM. It also gave a Kd [10] of 5.6 nM, a Kd [11] of 36 nM and a Kd [12] of 250 nM. For the same molecule, the Kd [13] was 3.4 nM, the Kd [14] was 31 nM and the Kd [15] was 840 nM. The Kd [16] was 7.7 nM, the Kd [17] was 57 nM and the Kd [18] was 34 nM. It also gave a Kd [19] of 1.8 nM, a Kd [20] of 9.5 nM and a Kd [21] of 3.3 nM. It also gave a Kd [22] of 100 nM, a Kd [23] of 150 nM and a Kd [24] of 74 nM. For the same molecule, the Kd [25] was 58 nM, the Kd [26] was 13 nM and the Kd [27] was 1.2 nM. The “% G0G1” value ([28]; 0.01 μM) was 57.30%, the “% G2M” value ([28]; 0.01 μM) was 5.98% and the “% S” value ([28]; 0.01 μM) was 36.72%. The “% G0G1” value ([28]; 0.1 μM) was 64.90%, the “% G2M” value ([28]; 0.1 μM) was 5.82% and the “% S” value ([28]; 0.1 μM) was 29.28%. The “% G0G1” value ([28]; 1.0 μM) was 77.55%, the “% G2M” value ([28]; 1.0 μM) was 7.16% and the “% S” value ([28]; 1.0 μM) was 15.29%. For the same molecule, the “% G0G1” value ([29]; 0.01 μM) was 35.2%, the “% G2M” value ([29]; 0.01 μM) was 14.62% and the “% S” value ([29]; 0.01 μM) was 50.19%. For the same molecule, the “% G0G1” value ([29]; 0.1 μM) was 29.01%, the “% G2M” value ([29]; 0.1 μM) was 16.54% and the “% S” value ([29]; 0.1 μM) was 54.45%. For the same molecule, the “% G0G1” value ([29]; 1.0 μM) was 52.57%, the “% G2M” value ([29]; 1.0 μM) was 10.05% and the “% S” value ([29]; 1.0 μM) was 37.38%. The “% G0G1” value ([30]; 0.01 μM) was 40.81%, the “% G2M” value ([30]; 0.01 μM) was 7.41% and the “% S” value ([30]; 0.01 μM) was 51.78%. The “% G0G1” value ([30]; 0.1 μM) was 72.37%, the “% G2M” value ([30]; 0.1 μM) was 3.62% and the “% S” value ([30]; 0.1 μM) was 24.01%. The “% G0G1” value ([30]; 1.0 μM) was 79.92%, the “% G2M” value ([30]; 1.0 μM) was 2.46% and the “% S” value ([30]; 1.0 μM) was 17.61%.
